From patent US12466784B2, “Analogs of pterostilbene amino acid bearing carbonates for treating a non-alcoholic fatty liver disease and nonalcoholic steatohepatitis” (APICAL MOLECULAR BIOTECH CO., LTD., priority 2020, dated 2025)
Values joined by “and” are separate entries in the source; they are usually repeats but may differ in a detail not shown here. Identical values can stand only once.

Legend:
[1] = tested on: hepatic steatosis induced by MCD diet; test: Histological examination (H&E stain) of liver of MCD diet mice; format: in vivo, Male C57BL/6 mice; details: for effect on MCD diet-induced steatohepatitis (H&E staining), in words / Steatosis / Ballooning / Fibrosis / Inflammation / Scores: MCD diet mice; for effect on MCD diet-induced steatohepatitis (H&E staining), in words / Avg / Ballooning / Fibrosis / Inflammation / Sum / Scores: 100 mg/kg oral; for Avg: average of Scores of the group; for Avg / Ballooning / Fibrosis / Inflammation / Sum / Scores: PG/TPSG (1:1); for Steatosis / Ballooning / Fibrosis / Inflammation: score per animal; for Steatosis: 100 mg/kg oral once daily, 5 times a week, in PG/TPSG (1:1); for Sum: sum of Scores of the 4 animals of the group; for Scores: total score per animal
Description: (§1) Animals and experimental protocol: Male C57BL/6 mice, 4 weeks of age, were purchased from Laboratory Animal Center (Taiwan, China) were maintained under the procedures and guidelines provided by the Institutional Animal Care and Use Committee of the Health Research Institutes (Taiwan, China). They were maintained with free access to pellet food and water in stainless-steel cages at a temperature of 21±2° C. with a 12 h light/dark cycle.
(§2) Mice were randomly divided into five groups and treated as follows: (1) MCD diet+PG/TPSG (2) MCD diet+100 mg/kg all compounds. After 28 days, animals were sacrificed for the collection of blood for determination of plasma ALT and AST concentrations, and liver samples for H&E stain.
(§3) After 28 days, animals were sacrificed for the collection of blood for determination of plasma ALT and AST concentrations, and liver samples for H&E stain.

[2] = In vitro stability in pH 1.2 solution (USP Gastric fluid without enzymes); details: 37° C.
Description: Sample collection: At 0, 0.17, 0.5, 1, 2, 4 and 6 h, 100 mL of aliquots were taken from the incubation mixture and placed into centrifuge tubes containing 100 μL of ice-cold acetonitrile and 1 μm internal standard where the reaction was terminated.

[3] = tested on: MCD diet NASH mice; test: Serum AST and ALT of compounds treated-NASH mice (MCD diet); format: in vivo, Male C57BL/6 mice; details: MCD diet mice; for effect on serum concentrations of AST and ALT, in words: 100 mg/kg oral (Table 2); for Serum ALT (U/L) / Serum AST (U/L): 100 mg/kg oral, PG/TPSG (1:1)
Description: as §1, §2, §3

| SMILES | effect on MCD diet-induced steatohepatitis (H&E staining), in words [1] | Avg [1] | Steatosis [1] | Ballooning [1] | Fibrosis [1] | Inflammation ([1]; hydrochloride, 100 mg/kg) | Sum [1] | Scores ([1]; hydrochloride, 100 mg/kg) | compound remaining in pH = 1.2 solution (%) ([2]; Time 0 h) | compound remaining in pH = 1.2 solution (%) ([2]; Time 0.167 h) | compound remaining in pH = 1.2 solution (%) ([2]; Time 0.5 h) | compound remaining in pH = 1.2 solution (%) ([2]; Time 1 h) | compound remaining in pH = 1.2 solution (%) ([2]; Time 2 h) | compound remaining in pH = 1.2 solution (%) ([2]; Time 4 h) | effect on serum concentrations of AST and ALT, in words [3] | Serum ALT (U/L) [3] [U/L] | Serum AST (U/L) [3] [U/L] | Steatosis ([1]; hydrochloride, 100 mg/kg) | also measured |
| --- | --- | --- | --- | --- | --- | --- | --- | --- | --- | --- | --- | --- | --- | --- | --- | --- | --- | --- | --- |
| COc1cc(/C=C/c2ccc(OC(=O)OCCNC(=O)CN)cc2)cc(OC)c1.Cl [Compound 5a, (E)-2-(2-aminoacetamido)ethyl (4-(3,5-dimethoxystyryl)phenyl) carbonate hydrochloride] | prevented MCD diet-induced steatohepatitis | 7.75 | 3 | 2 | 0 | 3 (3×) and 2 | 31 | 8 (3×) and 7 | 100.0 | 104.6 | 104.0 | 110.2 | 101.7 | 103.5 | significantly inhibited the serum concentrations of AST and ALT | 251.75 | 283.00 |  |  |
| COc1cc(/C=C/c2ccc(OC(=O)OCCNC(=O)C(N)Cc3ncc[nH]3)cc2)cc(OC)c1.Cl.Cl (centres unmarked) [Compound 5m, (E)-2-(2-amino-3-(1H-imidazol-2-yl)propanamido)ethyl (4-(3,5-dimethoxy styryl)phenyl) carbonate dihydrochloride] | prevented MCD diet-induced steatohepatitis | 7.25 |  | 2 | 0 |  | 29 |  | 100.0 | 88.6 | 109.8 | 113.5 | 102.6 | 85.6 | significantly inhibited the serum concentrations of AST and ALT | 190.88 | 381.75 |  | Steatosis ([1]; dihydrochloride, 100 mg/kg): 2 (2×) and 3 (2×); Inflammation ([1]; dihydrochloride, 100 mg/kg): 3 (3×) and 2; Scores ([1]; dihydrochloride, 100 mg/kg): 7 and 8 (2×) and 6 |
| COc1cc(/C=C/c2ccc(OC(=O)OCCNC(=O)CN)cc2)cc(OC)c1.O=C(O)c1cccnc1 [Compound 5v, (E)-2-(2-aminoacetamido)ethyl (4-(3,5-dimethoxystyryl)phenyl) carbonate nicotinate] |  | 8.00 | 3 | 2 | 0 |  | 32 |  | 100.0 | 100.6 | 106.8 | 101.0 | 103.0 | 106.9 |  | 430.13 | 610.25 |  | Inflammation [1]: 3; Scores [1]: 8; compound remaining in pH = 1.2 solution (%) ([2]; Time 6 h): 84.8% |
| COc1cc(/C=C/c2ccc(OC(=O)OCCNC(=O)C(N)C(C)C)cc2)cc(OC)c1.O=C(O)c1cccnc1 (centres unmarked) [Compound 5w, (E)-2-(2-amino-3-methylbutanamido)ethyl (4-(3,5-dimethoxystyryl)phenyl) carbonate nicotinate] | prevented MCD diet-induced steatohepatitis | 7.50 |  | 2 | 0 |  | 30 |  | 100.0 | 128.3 | 113.4 | 123.9 | 128.5 | 122.4 |  | 214.50 | 236.75 |  | Steatosis ([1]; 100 mg/kg): 3 (3×) and 2; Inflammation ([1]; 100 mg/kg): 2 and 3 (3×); Scores ([1]; 100 mg/kg): 7 (2×) and 8 (2×) |
| Cl.[2H]C([2H])([2H])Oc1cc(/C=C/c2ccc(OC(=O)OCCNC(=O)CN)cc2)cc(OC([2H])([2H])[2H])c1 [Compound 6a, (E)-2-(2-aminoacetamido)ethyl (4-(3,5-bis(methoxy-d3)styryl-d6)phenyl) carbonate hydrochloride] | prevented MCD diet-induced steatohepatitis | 7.00 |  | 2 | 0 | 3 (2×) and 2 (2×) | 28 | 8 and 7 (2×) and 6 | 100.0 | 106.4 | 101.2 | 119.4 | 101.5 | 104.6 |  | 402.63 | 555.25 | 3 (2×) and 2 (2×) |  |
| CCOc1cc(/C=C/c2ccc(OC(=O)OCCNC(=O)CN)cc2)cc(OCC)c1.Cl [Compound 6b, (E)-2-(2-aminoacetamido)ethyl (4-(3,5-diethoxystyryl)phenyl) carbonate hydrochloride] | prevented MCD diet-induced steatohepatitis | 7.00 |  | 2 | 0 | 3 (2×) and 2 (2×) | 28 | 8 (2×) and 6 (2×) | 100.0 | 130.5 | 103.9 | 111.7 | 97.9 | 99.2 |  | 454.38 | 408.75 | 3 (2×) and 2 (2×) |  |
